Assay results published in paper PMC9095466 (Nature, 2022).
“And” between values parts separate entries of the source, which are not always exact repeats. Equal entries are not always repeated. Where two headings read alike, the source gives them in different places.

Key:
human thrombin = molecular target: T1, human thrombin (Homo sapiens, UniProt P00734); experiment: Protease selectivity, Ki on protease; type: biochemical
T1 construct: purchased MilliporeSigma

Recombinant human hepsin = molecular target: T2, Recombinant human hepsin (Homo sapiens, UniProt P05981); experiment: Protease selectivity, Ki on recombinant protease; type: biochemical; details: single experiments N1-N3; Figure 1D; read-out: Individual Ki, Hepsin
T2 construct: made in house
T2 sequence (P05981 whole entry): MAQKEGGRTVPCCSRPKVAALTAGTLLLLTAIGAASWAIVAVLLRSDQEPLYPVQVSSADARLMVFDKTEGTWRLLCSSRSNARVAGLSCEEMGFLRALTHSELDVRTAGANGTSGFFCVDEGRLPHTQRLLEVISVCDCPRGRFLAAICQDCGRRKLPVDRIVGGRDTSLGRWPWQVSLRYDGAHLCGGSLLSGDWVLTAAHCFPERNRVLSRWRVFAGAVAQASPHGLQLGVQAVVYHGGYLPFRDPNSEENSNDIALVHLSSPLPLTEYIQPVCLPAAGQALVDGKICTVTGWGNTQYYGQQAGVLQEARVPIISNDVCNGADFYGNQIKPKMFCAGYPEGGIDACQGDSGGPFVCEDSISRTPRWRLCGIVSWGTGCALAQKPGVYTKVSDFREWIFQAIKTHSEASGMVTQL

Recombinant human furin = molecular target: T3, Recombinant human furin (Homo sapiens, UniProt P09958); experiment: Protease selectivity, Ki on recombinant protease; type: biochemical
T3 construct: purchased Bio-Techne
T3 sequence (P09958 108-794): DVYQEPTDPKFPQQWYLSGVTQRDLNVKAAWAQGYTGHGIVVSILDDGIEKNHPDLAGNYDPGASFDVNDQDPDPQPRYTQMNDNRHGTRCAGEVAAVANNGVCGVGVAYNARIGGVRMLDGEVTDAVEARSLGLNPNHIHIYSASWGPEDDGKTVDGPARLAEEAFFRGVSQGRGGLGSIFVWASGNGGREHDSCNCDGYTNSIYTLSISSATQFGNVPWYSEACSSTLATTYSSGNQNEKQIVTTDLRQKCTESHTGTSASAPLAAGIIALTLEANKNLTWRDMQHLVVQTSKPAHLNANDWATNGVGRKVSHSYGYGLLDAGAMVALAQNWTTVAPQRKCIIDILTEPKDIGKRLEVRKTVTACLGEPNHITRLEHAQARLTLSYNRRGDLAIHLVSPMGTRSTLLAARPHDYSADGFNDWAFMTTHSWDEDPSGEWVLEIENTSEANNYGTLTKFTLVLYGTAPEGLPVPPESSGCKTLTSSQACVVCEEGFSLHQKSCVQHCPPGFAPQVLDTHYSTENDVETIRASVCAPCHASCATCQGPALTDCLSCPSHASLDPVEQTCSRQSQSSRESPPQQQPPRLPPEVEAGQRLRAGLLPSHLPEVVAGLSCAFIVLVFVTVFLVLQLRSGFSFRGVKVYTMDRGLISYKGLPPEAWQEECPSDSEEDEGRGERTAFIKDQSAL

[1] = molecular target: T4, Recombinant human matriptase (Homo sapiens, UniProt Q9Y5Y6); experiment: Protease selectivity, Ki on recombinant protease; type: biochemical; details: single experiments N1-N3; Figure 1D; read-out: Individual Ki, Matriptase
T4 construct: made in house
T4 sequence (Q9Y5Y6 1-855): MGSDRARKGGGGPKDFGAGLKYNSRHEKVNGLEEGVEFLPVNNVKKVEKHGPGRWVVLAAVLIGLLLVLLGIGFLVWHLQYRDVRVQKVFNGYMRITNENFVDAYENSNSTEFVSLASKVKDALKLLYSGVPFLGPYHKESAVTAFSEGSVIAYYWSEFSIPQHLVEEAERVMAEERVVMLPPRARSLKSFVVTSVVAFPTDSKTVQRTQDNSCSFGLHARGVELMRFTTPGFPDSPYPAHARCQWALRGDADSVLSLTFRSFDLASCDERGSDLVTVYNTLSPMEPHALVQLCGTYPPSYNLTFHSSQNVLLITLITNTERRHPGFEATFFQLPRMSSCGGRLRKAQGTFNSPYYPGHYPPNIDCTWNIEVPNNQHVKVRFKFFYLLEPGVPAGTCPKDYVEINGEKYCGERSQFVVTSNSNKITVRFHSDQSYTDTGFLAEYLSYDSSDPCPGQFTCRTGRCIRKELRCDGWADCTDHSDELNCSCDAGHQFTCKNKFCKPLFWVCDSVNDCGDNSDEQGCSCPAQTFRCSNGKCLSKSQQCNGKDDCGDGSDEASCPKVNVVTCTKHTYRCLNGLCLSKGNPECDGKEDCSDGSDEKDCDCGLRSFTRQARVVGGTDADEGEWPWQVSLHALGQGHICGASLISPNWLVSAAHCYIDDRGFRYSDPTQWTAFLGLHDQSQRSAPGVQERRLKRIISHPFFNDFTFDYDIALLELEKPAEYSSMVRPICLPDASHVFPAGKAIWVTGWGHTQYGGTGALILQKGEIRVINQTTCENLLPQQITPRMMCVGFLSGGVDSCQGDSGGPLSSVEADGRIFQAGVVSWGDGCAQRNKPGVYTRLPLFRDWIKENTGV

human cathepsin L = molecular target: T5, human cathepsin L (Homo sapiens, UniProt P07711); experiment: Protease selectivity, Ki on protease; type: biochemical
T5 construct: purchased Bio-Techne
T5 sequence (P07711 114-333): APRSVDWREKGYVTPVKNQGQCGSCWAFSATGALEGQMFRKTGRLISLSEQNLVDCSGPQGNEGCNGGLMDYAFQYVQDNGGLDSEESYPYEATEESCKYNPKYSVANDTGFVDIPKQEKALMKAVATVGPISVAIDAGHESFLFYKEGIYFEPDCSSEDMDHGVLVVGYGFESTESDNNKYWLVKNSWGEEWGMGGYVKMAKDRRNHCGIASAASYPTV

Recombinant human DESC1 = molecular target: T6, Recombinant human DESC1 (Homo sapiens, UniProt Q9UL52); experiment: Protease selectivity, Ki on recombinant protease; type: biochemical
T6 construct: made in house
T6 sequence (Q9UL52 1-423): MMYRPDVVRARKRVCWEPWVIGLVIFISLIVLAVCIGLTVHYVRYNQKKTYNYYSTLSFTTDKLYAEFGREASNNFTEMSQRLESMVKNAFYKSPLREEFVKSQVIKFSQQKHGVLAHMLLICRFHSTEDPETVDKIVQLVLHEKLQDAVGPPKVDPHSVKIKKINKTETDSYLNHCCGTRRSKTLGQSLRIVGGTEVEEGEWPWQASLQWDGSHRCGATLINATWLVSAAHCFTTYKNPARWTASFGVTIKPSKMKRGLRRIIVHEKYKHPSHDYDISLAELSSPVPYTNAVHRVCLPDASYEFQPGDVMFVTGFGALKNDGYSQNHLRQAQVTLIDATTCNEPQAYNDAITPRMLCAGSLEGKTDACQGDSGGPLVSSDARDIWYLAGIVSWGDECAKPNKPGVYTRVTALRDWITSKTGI

Calu-3 cells = experiment: Cytotoxicity CC50 in Calu-3 lung epithelial cells; type: cell-based, human; details: single replicates
[2] = Cytotoxicity CC50 in Calu-3 lung epithelial cells; type: cell-based, human; details: human; for viability at 24 h, 1000 µM: Log [inhibitor] -3.00; for viability at 24 h, 300 µM: Log [inhibitor] -3.52; for viability at 24 h, 100 µM: Log [inhibitor] -4.00; for viability at 24 h, 30 µM: Log [inhibitor] -4.52; for viability at 24 h, 10 µM: Log [inhibitor] -5.00; for viability at 24 h, 3 µM: Log [inhibitor] -5.52; for viability at 24 h, 0.3 µM: Log [inhibitor] -6.52; for viability at 24 h, 0.03 µM: Log [inhibitor] -7.52; for viability at 24 h, 0.003 µM: Log [inhibitor] -8.52
[3] = tested on: SARS-CoV-2 lineage B strain (VIDO); experiment: microbe, parasite or virus in culture; type: cell-based
human TMPRSS2 = human TMPRSS2 (Homo sapiens, UniProt O15393); experiment: cell-based
Sequence of human TMPRSS2 (O15393 whole entry): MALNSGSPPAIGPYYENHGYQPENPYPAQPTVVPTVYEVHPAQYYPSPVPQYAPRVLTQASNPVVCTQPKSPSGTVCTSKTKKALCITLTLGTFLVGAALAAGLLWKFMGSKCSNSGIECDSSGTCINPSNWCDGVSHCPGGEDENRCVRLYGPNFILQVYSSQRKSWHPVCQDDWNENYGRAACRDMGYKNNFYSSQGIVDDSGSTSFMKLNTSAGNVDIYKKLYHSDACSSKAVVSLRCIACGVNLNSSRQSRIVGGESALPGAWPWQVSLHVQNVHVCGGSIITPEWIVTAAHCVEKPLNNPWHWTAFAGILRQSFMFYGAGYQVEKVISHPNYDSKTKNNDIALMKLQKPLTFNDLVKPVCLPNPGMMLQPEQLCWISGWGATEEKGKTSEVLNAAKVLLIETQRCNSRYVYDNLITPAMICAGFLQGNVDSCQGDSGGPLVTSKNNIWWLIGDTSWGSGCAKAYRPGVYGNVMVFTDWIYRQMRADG

[4] = single experiments N1-N4, Figure 1D, read-out: Individual Ki, Cathepsin L
[5] = single experiments N1-N3, Figure 1D, read-out: Individual Ki, Desc1
[6] = Calu-3 cells, read-out: % of Viability, Average (n=2)
[7] = Calu-3 cells, single replicates, read-out: % of Viability

For `N=C(N)NCCCCC(=O)N[C@@H](CCC(N)=O)C(=O)N[C@@H](Cc1ccccc1)C(=O)N[C@@H](CCCNC(=N)N)C(=O)c1nc2ccccc2s1` [Compound N-00130], the Ki (human thrombin; single experiments N1-N3, Figure 1D, read-out: Individual Ki, Thrombin) was 7.56 µM and > 10 µM and 7.14 µM, the Ki (Recombinant human hepsin) was 0.000221 µM and 0.000323 µM and 0.000606 µM and the Ki (Recombinant human furin; single experiments N1-N3, Figure 1D, read-out: Individual Ki, Furin) was greater than 10 µM. For the same compound, the Ki [1] was 0.154 nM and 0.0954 nM and 0.153 nM, the Ki (human cathepsin L; [4]) was greater than 10 µM and the Ki (Recombinant human DESC1; [5]) was 0.0164 µM and 0.0379 µM and 0.0305 µM.
In the case of `CS(=O)(=O)N[C@@H](CCC(N)=O)C(=O)N[C@@H](Cc1ccccc1)C(=O)N[C@@H](CCCNC(=N)N)C(=O)c1nc2ccccc2s1` [Compound N-00385], the Ki (human cathepsin L; [4]) is reported as 9.7 µM and 9.06 µM and 3.83 µM and 2.57 µM and the Ki (Recombinant human DESC1; [5]) is reported as 0.0253 µM and 0.0169 µM and 0.0346 µM.
With `CS(=O)(=O)N[C@@H](CCC(N)=O)C(=O)N[C@@H](Cc1ccccc1)C(=O)N[C@@H](CCCNC(=N)N)C(=O)c1nc2ccccc2s1` [Compound N-385] the “% of Viability” value (Calu-3 cells; Log [inhibitor] -2.52) was 42% and 63%, the “% of Viability” value (Calu-3 cells; Log [inhibitor] -4.00) was 88% and the “% of Viability” value (Calu-3 cells; Log [inhibitor] -4.52) was 84%. For the same compound, the “% of Viability” value (Calu-3 cells; Log [inhibitor] -5.00) was 99%, the “% of Viability” value (Calu-3 cells; Log [inhibitor] -6.52) was 109% and the “% of Viability” value (Calu-3 cells; Log [inhibitor] -7.52) was 105%. The “% of Viability” value (Calu-3 cells; Log [inhibitor] -8.52) was 115%, the viability at 24 h, 3000 µM ([2]; Calu-3 cells, Log [inhibitor] -2.52, read-out: % of Viability, Average (n=2)) was 52.5% and the viability at 24 h, 1000 µM [2, 6] was 80.5%. It also gave a viability at 24 h, 1000 µM [2, 7] of 74%, a viability at 24 h, 300 µM [2, 6] of 92% and a viability at 24 h, 300 µM [2, 7] of 90%. For the same compound, the viability at 24 h, 100 µM [2, 6] was 91%, the viability at 24 h, 100 µM [2, 7] was 94% and the viability at 24 h, 30 µM [2, 6] was 87%. For the same compound, the viability at 24 h, 30 µM [2, 7] was 90%, the viability at 24 h, 10 µM [2, 6] was 101% and the viability at 24 h, 10 µM [2, 7] was 103%. The viability at 24 h, 3 µM [2, 6] was 110%, the viability at 24 h, 3 µM [2, 7] was 110% and the viability at 24 h, 0.3 µM [2, 6] was 111%. The viability at 24 h, 0.3 µM [2, 7] was 113%, the viability at 24 h, 0.03 µM [2, 6] was 110% and the viability at 24 h, 0.03 µM [2, 7] was 116%. The viability at 24 h, 0.003 µM [2, 6] was 117%, the viability at 24 h, 0.003 µM [2, 7] was 119% and the CC50 at 24 h ([2]; Calu-3 cells, unit not given for CC50, read-out: CC50) was 3470 µM.
In the case of `CC(=O)NC(CCC(N)=O)C(=O)NC(Cc1ccccc1)C(=O)NC(CCCNC(=N)N)C(=O)c1nc2ccccc2s1` (centres unmarked) [Compound N-0386, Ac-QFR-kbt], the CC50 at 24 h ([2]; Calu-3 lung epithelial cells, n = 2, read-out: CC50 in Calu-3 cells) is reported as 1880 µM, the Ki (human thrombin; mean ± s.d., max concentration 10 µM, read-out: Ki Thrombin) is reported as greater than 10 µM and the Nucleocapsid ([3]; Figure 2a, two replicates, DMSO control about 91-94) is reported as 0.1229 and 1.4208. The dsRNA ([3]; Figure 2a, two replicates, DMSO control about 93-95) was 0.2037 and 0, the EC50 ([3]; Severe acute respiratory syndrome coronavirus 2, Calu-3, read-out: SARS-CoV-2 VIDO Nucleocapsid EC50 ± SE) was 0.0023 ± 0.0017 µM and the inhibition at 0.1 µM ([3]; Severe acute respiratory syndrome coronavirus 2, Calu-3, read-out: inhibition of SARS-CoV-2 infection) was greater than 99%. The “Figure 2b dose-response, Mean” value ([3]; log [C] (nM) 0.20412) was 63.391, the “Figure 2b dose-response, Mean” value ([3]; log [C] (nM) 0.90309) was 26.1724 and the “Figure 2b dose-response, Mean” value ([3]; log [C] (nM) 1.60206) was 7.727. The “Figure 2b dose-response, Mean” value ([3]; log [C] (nM) 2.30103) was 6.997, the “Figure 2b dose-response, Mean” value ([3]; log [C] (nM) 3) was 2.833 and the “Figure 2b dose-response, Mean” value ([3]; log [C] (nM) -0.49485) was 81.0636. For the same compound, the “Figure 2b dose-response, Mean” value ([3]; log [C] (nM) -1.19382) was 95.046, the Ki (Recombinant human furin; mean ± s.d., max concentration 10 µM, read-out: Ki Furin) was greater than 10 µM and the “TMPRSS2 activity (%)” value (human TMPRSS2; Figure 1B, single experiments N1-N3) was 22.2147% and 27.837% and 33.2674%. For the same compound, the inhibition at 0.01 µM (human TMPRSS2; Vero C1008, 10 nM compound, 24 h, vs untreated/vehicle TMPRSS2-expressing Vero E6 cells, read-out: inhibition of TMPRSS2 activity (reduction of substrate proteolysis)) was 73%, the Ki (human cathepsin L; mean ± s.d., max concentration 10 µM, read-out: Ki Cathepsin L) was 7.72 ± 0.142 µM and the Ki (Recombinant human DESC1; mean ± s.d., max concentration 10 µM, read-out: Ki DESC1) was 0.0091 ± 0.0019 µM.
